From the kinase profiling compilation of Christmann-Franck et al. (2016)

Key:
Test in all cases: radiometric filter-binding kinase assay, Kinase HotSpot
Settings in all cases: compound 0.5 µM; ATP 10 µM
CDK4 CCND1 (human) = CDK4 CCND1 (human) (UniProt P24385+P11802)
BRAF (human) = BRAF (human) (UniProt P15056)
STK38 (human) = STK38 (human) (UniProt Q15208)
MERTK (human) = MERTK (human) (UniProt Q12866)
EPHB1 (human) = EPHB1 (human) (UniProt P54762)
MAP3K9 (human) = MAP3K9 (human) (UniProt P80192)
TLK2 (human) = TLK2 (human) (UniProt Q86UE8)
AURKA (human) = AURKA (human) (UniProt O14965)
WNK3 (human) = WNK3 (human) (UniProt Q9BYP7)
CSNK1G1 (human) = CSNK1G1 (human) (UniProt Q9HCP0)
PLK1 (human) = PLK1 (human) (UniProt P53350)
PLK1 (human), sequence (P53350 whole entry, looked up): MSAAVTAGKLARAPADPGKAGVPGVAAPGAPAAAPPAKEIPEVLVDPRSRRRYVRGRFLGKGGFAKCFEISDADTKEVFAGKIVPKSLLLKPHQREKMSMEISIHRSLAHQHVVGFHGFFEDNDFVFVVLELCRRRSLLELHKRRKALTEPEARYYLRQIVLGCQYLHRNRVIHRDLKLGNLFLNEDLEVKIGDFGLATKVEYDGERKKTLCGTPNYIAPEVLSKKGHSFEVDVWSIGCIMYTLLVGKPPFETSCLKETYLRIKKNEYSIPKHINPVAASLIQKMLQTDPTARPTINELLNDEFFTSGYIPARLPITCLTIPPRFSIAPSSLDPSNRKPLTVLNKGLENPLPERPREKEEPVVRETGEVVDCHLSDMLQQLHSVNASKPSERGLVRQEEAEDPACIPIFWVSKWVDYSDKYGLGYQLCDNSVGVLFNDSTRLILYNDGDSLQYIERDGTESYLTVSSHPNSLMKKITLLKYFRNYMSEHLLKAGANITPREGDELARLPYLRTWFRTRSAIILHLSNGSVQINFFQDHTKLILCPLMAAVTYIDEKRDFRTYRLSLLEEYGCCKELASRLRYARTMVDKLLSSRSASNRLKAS

MAPK9 (human) = MAPK9 (human) (UniProt P45984)
MET (human) = MET (human) (UniProt P08581)
AURKC (human) = AURKC (human) (UniProt Q9UQB9)
MYLK2 (human) = MYLK2 (human) (UniProt Q9H1R3)
LRRK2 (human) = LRRK2 (human) (UniProt Q5S007)
MAP3K5 (human) = MAP3K5 (human) (UniProt Q99683)
ULK3 (human) = ULK3 (human) (UniProt Q6PHR2)
GSK3A (human) = GSK3A (human) (UniProt P49840)
GSK3A (human), sequence (P49840 whole entry, looked up): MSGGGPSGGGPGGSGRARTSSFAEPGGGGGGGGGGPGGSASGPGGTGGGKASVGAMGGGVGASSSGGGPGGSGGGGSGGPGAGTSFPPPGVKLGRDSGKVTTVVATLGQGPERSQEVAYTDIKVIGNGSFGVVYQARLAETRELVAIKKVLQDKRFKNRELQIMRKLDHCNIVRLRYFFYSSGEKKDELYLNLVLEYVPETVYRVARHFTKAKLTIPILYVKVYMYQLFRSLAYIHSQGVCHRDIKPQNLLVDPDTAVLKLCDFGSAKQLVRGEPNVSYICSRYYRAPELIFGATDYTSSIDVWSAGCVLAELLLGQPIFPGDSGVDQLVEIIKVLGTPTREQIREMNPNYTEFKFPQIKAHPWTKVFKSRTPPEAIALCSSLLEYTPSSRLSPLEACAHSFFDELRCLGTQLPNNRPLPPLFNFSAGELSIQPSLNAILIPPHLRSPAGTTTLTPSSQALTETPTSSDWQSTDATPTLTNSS

LTK (human) = LTK (human) (UniProt P29376)
DYRK1A (human) = DYRK1A (human) (UniProt Q13627)
CAMK2A (human) = CAMK2A (human) (UniProt Q9UQM7)
FRK (human) = FRK (human) (UniProt P42685)
FRK (human), sequence (P42685 whole entry, looked up): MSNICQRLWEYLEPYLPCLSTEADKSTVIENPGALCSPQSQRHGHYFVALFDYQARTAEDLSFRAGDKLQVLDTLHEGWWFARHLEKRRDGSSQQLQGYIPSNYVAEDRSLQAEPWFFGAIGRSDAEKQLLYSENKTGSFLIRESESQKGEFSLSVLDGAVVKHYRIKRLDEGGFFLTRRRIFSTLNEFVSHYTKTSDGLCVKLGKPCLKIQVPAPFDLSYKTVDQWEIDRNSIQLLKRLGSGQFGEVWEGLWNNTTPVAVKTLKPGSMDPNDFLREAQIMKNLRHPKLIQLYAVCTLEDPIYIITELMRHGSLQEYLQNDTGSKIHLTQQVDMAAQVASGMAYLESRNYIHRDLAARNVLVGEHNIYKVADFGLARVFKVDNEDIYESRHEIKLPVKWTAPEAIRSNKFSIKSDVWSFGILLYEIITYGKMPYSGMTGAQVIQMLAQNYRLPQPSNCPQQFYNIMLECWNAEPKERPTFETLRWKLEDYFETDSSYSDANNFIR

EPHA6 (human) = EPHA6 (human) (UniProt Q9UF33)
INSRR (human) = INSRR (human) (UniProt P14616)
CDC42BPB (human) = CDC42BPB (human) (UniProt Q9Y5S2)
SRMS (human) = SRMS (human) (UniProt Q9H3Y6)
SRMS (human), sequence (Q9H3Y6 whole entry, looked up): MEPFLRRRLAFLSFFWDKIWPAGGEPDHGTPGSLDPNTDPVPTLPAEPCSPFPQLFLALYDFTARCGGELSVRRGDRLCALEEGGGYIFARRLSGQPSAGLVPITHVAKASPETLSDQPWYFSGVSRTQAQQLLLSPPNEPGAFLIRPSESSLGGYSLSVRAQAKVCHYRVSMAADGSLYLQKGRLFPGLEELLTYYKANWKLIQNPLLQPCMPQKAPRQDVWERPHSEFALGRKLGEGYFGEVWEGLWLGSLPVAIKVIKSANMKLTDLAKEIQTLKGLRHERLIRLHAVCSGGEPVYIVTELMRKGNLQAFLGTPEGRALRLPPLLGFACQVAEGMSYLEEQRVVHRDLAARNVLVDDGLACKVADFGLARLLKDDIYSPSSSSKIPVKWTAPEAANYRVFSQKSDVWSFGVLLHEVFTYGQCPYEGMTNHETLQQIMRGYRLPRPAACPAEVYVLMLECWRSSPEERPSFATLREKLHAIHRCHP

STK24 (human) = STK24 (human) (UniProt Q9Y6E0)
STK24 (human), sequence (Q9Y6E0 whole entry, looked up): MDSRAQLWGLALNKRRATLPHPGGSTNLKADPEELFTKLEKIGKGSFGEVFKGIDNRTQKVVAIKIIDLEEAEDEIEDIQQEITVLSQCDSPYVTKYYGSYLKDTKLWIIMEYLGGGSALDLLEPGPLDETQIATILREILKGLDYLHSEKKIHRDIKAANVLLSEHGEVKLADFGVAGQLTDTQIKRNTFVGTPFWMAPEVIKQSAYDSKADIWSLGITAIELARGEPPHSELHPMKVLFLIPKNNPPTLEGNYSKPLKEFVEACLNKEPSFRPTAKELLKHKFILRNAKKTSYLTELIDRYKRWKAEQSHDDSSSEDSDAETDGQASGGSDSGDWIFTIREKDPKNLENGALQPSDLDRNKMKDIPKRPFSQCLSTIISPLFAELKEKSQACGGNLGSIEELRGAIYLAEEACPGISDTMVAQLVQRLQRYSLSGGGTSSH

MAP4K2 (human) = MAP4K2 (human) (UniProt Q12851)
MAP4K2 (human), sequence (Q12851 whole entry, looked up): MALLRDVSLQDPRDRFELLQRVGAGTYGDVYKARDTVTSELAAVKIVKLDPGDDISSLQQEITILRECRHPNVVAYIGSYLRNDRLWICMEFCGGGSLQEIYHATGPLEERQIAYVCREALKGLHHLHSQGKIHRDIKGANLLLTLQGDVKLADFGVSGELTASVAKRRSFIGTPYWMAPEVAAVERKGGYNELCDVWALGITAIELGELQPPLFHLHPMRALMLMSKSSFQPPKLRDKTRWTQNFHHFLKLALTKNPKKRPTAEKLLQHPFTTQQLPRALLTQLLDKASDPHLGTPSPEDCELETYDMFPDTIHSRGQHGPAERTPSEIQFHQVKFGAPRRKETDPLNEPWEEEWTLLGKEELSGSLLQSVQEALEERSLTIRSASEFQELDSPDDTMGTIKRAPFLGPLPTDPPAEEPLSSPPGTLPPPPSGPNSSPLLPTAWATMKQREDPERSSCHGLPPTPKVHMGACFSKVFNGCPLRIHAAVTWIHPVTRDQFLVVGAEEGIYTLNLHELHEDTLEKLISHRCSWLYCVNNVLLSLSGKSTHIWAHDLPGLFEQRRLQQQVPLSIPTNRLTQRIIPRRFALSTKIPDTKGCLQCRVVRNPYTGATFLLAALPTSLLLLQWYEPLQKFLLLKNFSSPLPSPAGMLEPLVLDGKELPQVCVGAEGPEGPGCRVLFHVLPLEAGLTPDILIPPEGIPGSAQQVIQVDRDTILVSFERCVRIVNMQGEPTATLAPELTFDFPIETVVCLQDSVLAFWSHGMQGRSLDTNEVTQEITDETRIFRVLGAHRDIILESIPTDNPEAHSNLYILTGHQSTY

KDR (human) = KDR (human) (UniProt P35968)
MYO3B (human) = MYO3B (human) (UniProt Q8WXR4)
CSNK2A2 (human) = CSNK2A2 (human) (UniProt P19784)
CSNK2A2 (human), sequence (P19784 whole entry, looked up): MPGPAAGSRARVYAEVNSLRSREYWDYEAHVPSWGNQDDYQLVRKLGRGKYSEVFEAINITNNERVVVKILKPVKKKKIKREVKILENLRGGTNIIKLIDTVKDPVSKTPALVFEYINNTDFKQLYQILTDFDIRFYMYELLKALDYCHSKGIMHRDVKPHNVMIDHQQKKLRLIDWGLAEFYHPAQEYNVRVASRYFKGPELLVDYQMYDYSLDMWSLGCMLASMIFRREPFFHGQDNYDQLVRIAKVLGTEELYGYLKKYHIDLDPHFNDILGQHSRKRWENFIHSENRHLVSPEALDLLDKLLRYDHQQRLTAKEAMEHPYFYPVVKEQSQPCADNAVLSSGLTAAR

IGF1R (human) = IGF1R (human) (UniProt P08069)
EPHB2 (human) = EPHB2 (human) (UniProt P29323)
PKN2 (human) = PKN2 (human) (UniProt Q16513)
PKN2 (human), sequence (Q16513 whole entry, looked up): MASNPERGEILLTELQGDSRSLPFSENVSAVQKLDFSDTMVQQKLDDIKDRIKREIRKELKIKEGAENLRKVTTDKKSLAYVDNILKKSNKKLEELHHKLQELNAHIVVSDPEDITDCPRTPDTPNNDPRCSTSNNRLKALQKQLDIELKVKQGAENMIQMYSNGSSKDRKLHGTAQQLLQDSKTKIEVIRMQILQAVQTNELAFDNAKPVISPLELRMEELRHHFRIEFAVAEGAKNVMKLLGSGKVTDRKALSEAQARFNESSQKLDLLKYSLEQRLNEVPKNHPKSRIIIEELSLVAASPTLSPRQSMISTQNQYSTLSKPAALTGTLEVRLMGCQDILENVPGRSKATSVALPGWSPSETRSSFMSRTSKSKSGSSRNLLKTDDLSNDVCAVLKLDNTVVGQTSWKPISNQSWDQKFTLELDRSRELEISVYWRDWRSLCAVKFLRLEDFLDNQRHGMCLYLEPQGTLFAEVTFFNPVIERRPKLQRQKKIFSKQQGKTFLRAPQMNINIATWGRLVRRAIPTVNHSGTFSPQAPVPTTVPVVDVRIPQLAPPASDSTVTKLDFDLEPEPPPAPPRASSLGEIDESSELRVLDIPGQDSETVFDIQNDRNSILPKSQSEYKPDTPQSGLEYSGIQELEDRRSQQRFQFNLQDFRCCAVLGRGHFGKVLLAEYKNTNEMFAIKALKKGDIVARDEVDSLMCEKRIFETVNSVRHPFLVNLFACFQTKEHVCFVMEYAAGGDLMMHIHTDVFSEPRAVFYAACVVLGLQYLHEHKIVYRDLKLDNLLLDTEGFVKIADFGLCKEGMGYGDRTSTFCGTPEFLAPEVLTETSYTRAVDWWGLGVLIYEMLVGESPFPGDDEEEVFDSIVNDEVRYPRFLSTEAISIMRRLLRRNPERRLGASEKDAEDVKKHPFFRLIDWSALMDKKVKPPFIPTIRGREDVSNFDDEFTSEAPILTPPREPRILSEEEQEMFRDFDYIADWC

PBK (human) = PBK (human) (UniProt Q96KB5)
PBK (human), sequence (Q96KB5 whole entry, looked up): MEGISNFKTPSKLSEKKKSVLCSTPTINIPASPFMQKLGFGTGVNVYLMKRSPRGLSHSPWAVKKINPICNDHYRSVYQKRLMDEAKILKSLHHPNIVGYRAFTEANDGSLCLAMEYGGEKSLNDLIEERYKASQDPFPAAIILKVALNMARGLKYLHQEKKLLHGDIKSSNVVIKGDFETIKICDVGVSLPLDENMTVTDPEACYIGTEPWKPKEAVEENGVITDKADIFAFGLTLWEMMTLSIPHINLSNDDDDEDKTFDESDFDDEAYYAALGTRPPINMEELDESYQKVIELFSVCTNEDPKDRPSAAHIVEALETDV

[1] = target: JAK1 JH1 catalytic (human) (UniProt P23458)
MARK4 (human) = MARK4 (human) (UniProt Q96L34)
CDK5 CDK5R1 p35 (human) = CDK5 CDK5R1 p35 (human) (UniProt Q00535+Q15078)
PRKACG (human) = PRKACG (human) (UniProt P22612)

| SMILES | residual activity (CDK4 CCND1 (human)) [%] | residual activity (BRAF (human)) [%] | residual activity (STK38 (human)) [%] | residual activity (MERTK (human)) [%] | residual activity (EPHB1 (human)) [%] | residual activity (MAP3K9 (human)) [%] | residual activity (TLK2 (human)) [%] | residual activity (AURKA (human)) [%] | residual activity (WNK3 (human)) [%] | residual activity (CSNK1G1 (human)) [%] | residual activity (PLK1 (human)) [%] | residual activity (MAPK9 (human)) [%] | residual activity (MET (human)) [%] | residual activity (AURKC (human)) [%] | residual activity (MYLK2 (human)) [%] | residual activity (LRRK2 (human)) [%] | residual activity (MAP3K5 (human)) [%] | residual activity (ULK3 (human)) [%] | residual activity (GSK3A (human)) [%] | residual activity (LTK (human)) [%] | further results |
| --- | --- | --- | --- | --- | --- | --- | --- | --- | --- | --- | --- | --- | --- | --- | --- | --- | --- | --- | --- | --- | --- |
| CN(C)C[C@H]1CCn2c(c(C3=C(c4cn(C)c5ccccc45)C(=O)NC3=O)c3ccccc32)C1 | 86.9 | 95.2 | 96.7 | 95.4 | 106 | 90.8 | 88.4 | 87.7 | 100 | 97 | 102 | 105 | 96.2 | 93.1 | 74.2 | 93.1 | 107 | 88.9 | 14.2 | 101 | residual activity (DYRK1A (human)): 88.7%; residual activity (CAMK2A (human)): 100%; residual activity (FRK (human)): 103%; residual activity (EPHA6 (human)): 100%; residual activity (INSRR (human)): 98.7%; residual activity (CDC42BPB (human)): 103%; residual activity (SRMS (human)): 109%; residual activity (STK24 (human)): 66.5%; residual activity (MAP4K2 (human)): 99%; residual activity (KDR (human)): 101%; residual activity (MYO3B (human)): 87.9%; residual activity (CSNK2A2 (human)): 92.4%; residual activity (IGF1R (human)): 101%; residual activity (EPHB2 (human)): 110%; residual activity (PKN2 (human)): 87%; residual activity (PBK (human)): 101%; residual activity [1]: 108%; residual activity (MARK4 (human)): 93.9%; residual activity (CDK5 CDK5R1 p35 (human)): 85.4%; residual activity (PRKACG (human)): 108% |
| O=C1NC(=O)/C(=C\c2ccc3nccnc3c2)S1 | 94.4 | 95.1 | 99.6 | 92.1 | 93.4 | 102 | 95.2 | 97.2 | 85.8 | 101 | 100 | 96 | 91.2 | 95.6 | 97.2 | 96 | 102 | 102 | 88.8 | 94.7 | residual activity (DYRK1A (human)): 21.8%; residual activity (CAMK2A (human)): 92.3%; residual activity (FRK (human)): 91.7%; residual activity (EPHA6 (human)): 82.4%; residual activity (INSRR (human)): 111%; residual activity (CDC42BPB (human)): 91.3%; residual activity (SRMS (human)): 96.6%; residual activity (STK24 (human)): 93.2%; residual activity (MAP4K2 (human)): 86.1%; residual activity (KDR (human)): 92.6%; residual activity (MYO3B (human)): 83.8%; residual activity (CSNK2A2 (human)): 3.08%; residual activity (IGF1R (human)): 92%; residual activity (EPHB2 (human)): 94.7%; residual activity (PKN2 (human)): 107%; residual activity (PBK (human)): 93%; residual activity [1]: 103%; residual activity (MARK4 (human)): 89.9%; residual activity (CDK5 CDK5R1 p35 (human)): 97.9%; residual activity (PRKACG (human)): 99.6% |
| O=C(CCCc1ccc(-c2ccccc2F)cc1)Nc1ccc(O)cc1 | 102 | 93 | 109 | 98.8 | 96.4 | 100 | 84.1 | 104 | 109 | 104 | 95.5 | 106 | 114 | 95.4 | 97.8 | 98 | 94.3 | 103 | 98.6 | 106 | residual activity (DYRK1A (human)): 106%; residual activity (CAMK2A (human)): 116%; residual activity (FRK (human)): 91.9%; residual activity (EPHA6 (human)): 89.6%; residual activity (INSRR (human)): 92.7%; residual activity (CDC42BPB (human)): 109%; residual activity (SRMS (human)): 101%; residual activity (STK24 (human)): 88.9%; residual activity (MAP4K2 (human)): 104%; residual activity (KDR (human)): 101%; residual activity (MYO3B (human)): 96.3%; residual activity (CSNK2A2 (human)): 78.7%; residual activity (IGF1R (human)): 106%; residual activity (EPHB2 (human)): 98.5%; residual activity (PKN2 (human)): 89.8%; residual activity (PBK (human)): 90.8%; residual activity [1]: 98.2%; residual activity (MARK4 (human)): 124%; residual activity (CDK5 CDK5R1 p35 (human)): 92.5%; residual activity (PRKACG (human)): 93.5% |
| COc1cc2ncnc(N3CCN(C(=O)Nc4ccc(Oc5ccccc5)cc4)CC3)c2cc1OC | 101 | 92.6 | 96.9 | 60 | 94.3 | 100 | 94.7 | 79.6 | 101 | 81.6 | 96.6 | 88.4 | 107 | 90.3 | 94.6 | 98.3 | 102 | 100 | 95.8 | 89.8 | residual activity (DYRK1A (human)): 97.9%; residual activity (CAMK2A (human)): 89.9%; residual activity (FRK (human)): 90.2%; residual activity (EPHA6 (human)): 89.6%; residual activity (INSRR (human)): 96.8%; residual activity (CDC42BPB (human)): 98.3%; residual activity (SRMS (human)): 93.6%; residual activity (STK24 (human)): 99.6%; residual activity (MAP4K2 (human)): 94.7%; residual activity (KDR (human)): 82.7%; residual activity (MYO3B (human)): 95.4%; residual activity (CSNK2A2 (human)): 61.9%; residual activity (IGF1R (human)): 103%; residual activity (EPHB2 (human)): 98.2%; residual activity (PKN2 (human)): 99.1%; residual activity (PBK (human)): 85.8%; residual activity [1]: 96.5%; residual activity (MARK4 (human)): 76.5%; residual activity (CDK5 CDK5R1 p35 (human)): 99.8%; residual activity (PRKACG (human)): 103% |
